Measured values reported in the OligoGym collection.
HELM strings list units from the 5' end as sugar, base in round brackets, then linkage (d deoxyribose, r ribose, m 2'-O-methyl, p phosphodiester). Strings are as the collection lists them; they lack the last nucleoside at the 3' end of the tested compound. [moe] = 2'-O-(2-methoxyethyl) (MOE); [sp] = phosphorothioate linkage; [m5C] = 5-methylcytosine

Biological target: GFAP
Assay: mouse, dose not given
Details: ASO

Row | Substance | 3 h FOB score [score 0-7]
1 | RNA1{[moe]([m5C])[sp].[moe](A)p.[moe](G)p.[moe]([m5C])p.[moe]([m5C])p.d(T)[sp].d(G)[sp].d(G)[sp].d(T)[sp].d(T)[sp].d(A)[sp].d(G)[sp].d([m5C])[sp].d([m5C])[sp].d(T)[sp].[moe](T)p.[moe](T)p.[moe]([m5C])[sp].[moe](T)}$$$$ (last 3' nucleoside missing) | 5
2 | RNA1{[moe](G)[sp].[moe](A)p.[moe](G)p.[moe](T)p.[moe]([m5C])[sp].d(T)[sp].d([m5C])[sp].d(A)[sp].d(G)[sp].d(T)[sp].d(T)[sp].d(T)[sp].d(T)[sp].d([m5C])[sp].d([m5C])[sp].[moe](T)p.[moe]([m5C])p.[moe]([m5C])[sp].[moe](A)}$$$$ (last 3' nucleoside missing) | 4
3 | RNA1{[moe](T)[sp].[moe](G)p.[moe](G)p.[moe](T)p.[moe](G)p.d([m5C])[sp].d(T)[sp].d(T)[sp].d(T)[sp].d(T)[sp].d(G)[sp].d([m5C])[sp].d([m5C])[sp].d([m5C])[sp].d([m5C])[sp].[moe]([m5C])p.[moe](T)p.[moe](G)[sp].[moe](T)}$$$$ (last 3' nucleoside missing) | 0
4 | RNA1{[moe](G)[sp].[moe]([m5C])p.[moe](G)p.[moe](A)p.[moe](G)[sp].d([m5C])[sp].d(G)[sp].d(G)[sp].d(A)[sp].d(G)[sp].d(G)[sp].d([m5C])[sp].d([m5C])[sp].d(T)[sp].d(G)[sp].[moe](G)p.[moe](G)p.[moe](T)[sp].[moe](G)}$$$$ (last 3' nucleoside missing) | 6
5 | RNA1{[moe](T)[sp].[moe]([m5C])p.[moe]([m5C])p.[moe](T)p.[moe]([m5C])[sp].d(A)[sp].d(A)[sp].d(G)[sp].d(A)[sp].d(A)[sp].d([m5C])[sp].d([m5C])[sp].d(G)[sp].d(G)[sp].d(A)[sp].[moe](T)p.[moe]([m5C])p.[moe](T)[sp].[moe]([m5C])}$$$$ (last 3' nucleoside missing) | 1
6 | RNA1{[moe]([m5C])[sp].[moe](A)p.[moe]([m5C])p.[moe](G)p.[moe](T)p.d([m5C])[sp].d(A)[sp].d([m5C])[sp].d(A)[sp].d(T)[sp].d(T)[sp].d([m5C])[sp].d(A)[sp].d([m5C])[sp].d(T)[sp].[moe](A)p.[moe](A)p.[moe](T)[sp].[moe](A)}$$$$ (last 3' nucleoside missing) | 0
7 | RNA1{[moe]([m5C])[sp].[moe](A)p.[moe](G)p.[moe]([m5C])p.[moe](A)[sp].d(G)[sp].d(T)[sp].d(G)[sp].d([m5C])[sp].d([m5C])[sp].d([m5C])[sp].d(T)[sp].d(G)[sp].d(A)[sp].d(A)[sp].[moe](G)p.[moe](A)p.[moe](T)[sp].[moe](T)}$$$$ (last 3' nucleoside missing) | 1
8 | RNA1{[moe](T)[sp].[moe](T)p.[moe](G)p.[moe](G)p.[moe]([m5C])[sp].d(A)[sp].d(G)[sp].d(T)[sp].d(A)[sp].d(T)[sp].d(T)[sp].d(A)[sp].d([m5C])[sp].[moe]([m5C])p.[moe](T)p.[moe]([m5C])[sp].[moe](T)}$$$$ (last 3' nucleoside missing) | 0
9 | RNA1{[moe]([m5C])[sp].[moe](G)p.[moe](T)p.[moe]([m5C])p.[moe](A)p.d([m5C])[sp].d(A)[sp].d(T)[sp].d(T)[sp].d([m5C])[sp].d(A)[sp].d([m5C])[sp].d(T)[sp].d(A)[sp].d(A)[sp].[moe](T)p.[moe](A)p.[moe](T)[sp].[moe](T)}$$$$ (last 3' nucleoside missing) | 0
10 | RNA1{[moe](G)[sp].[moe](G)p.[moe]([m5C])p.[moe](G)p.[moe](A)[sp].d(G)[sp].d([m5C])[sp].d(G)[sp].d(G)[sp].d(A)[sp].d(G)[sp].d(G)[sp].d([m5C])[sp].d([m5C])[sp].d(T)[sp].[moe](G)p.[moe](G)p.[moe](G)[sp].[moe](T)}$$$$ (last 3' nucleoside missing) | 7
11 | RNA1{[moe]([m5C])[sp].[moe](G)p.[moe](T)p.[moe](A)p.[moe](T)[sp].d(T)[sp].d(G)[sp].d(T)[sp].d(G)[sp].d(A)[sp].d(G)[sp].d(G)[sp].d([m5C])[sp].d(T)[sp].d(T)[sp].[moe](T)p.[moe](T)p.[moe](G)[sp].[moe](A)}$$$$ (last 3' nucleoside missing) | 7
12 | RNA1{[moe]([m5C])[sp].[moe](A)p.[moe](T)p.[moe](G)p.[moe](G)[sp].d([m5C])[sp].d([m5C])[sp].d(T)[sp].d(G)[sp].d(G)[sp].d([m5C])[sp].d([m5C])[sp].d(T)[sp].d(T)[sp].d(G)[sp].[moe](A)p.[moe](G)p.[moe](A)[sp].[moe](A)}$$$$ (last 3' nucleoside missing) | 1
13 | RNA1{[moe](A)[sp].[moe](G)p.[moe]([m5C])p.[moe](A)p.d(T)[sp].d(T)[sp].d(T)[sp].d(G)[sp].d(T)[sp].d([m5C])[sp].d(T)[sp].d(T)[sp].d(T)[sp].d(A)[sp].[moe](T)p.[moe](T)p.[moe](T)p.[moe](T)[sp].[moe](T)}$$$$ (last 3' nucleoside missing) | 1
14 | RNA1{[moe](T)[sp].[moe]([m5C])p.[moe](A)p.[moe]([m5C])p.[moe](A)p.[moe](T)p.d(T)[sp].d([m5C])[sp].d(A)[sp].d([m5C])[sp].d(T)[sp].d(A)[sp].d(A)[sp].d(T)[sp].d(A)[sp].d(T)[sp].[moe](T)p.[moe](T)[sp].[moe](A)}$$$$ (last 3' nucleoside missing) | 0
15 | RNA1{[moe](G)[sp].[moe]([m5C])p.[moe](T)p.[moe](T)p.d(T)[sp].d(T)[sp].d(G)[sp].d([m5C])[sp].d([m5C])[sp].d([m5C])[sp].d([m5C])[sp].d([m5C])[sp].d(T)[sp].d(G)[sp].[moe](T)p.[moe](A)p.[moe](G)p.[moe](T)[sp].[moe](G)}$$$$ (last 3' nucleoside missing) | 3
16 | RNA1{[moe]([m5C])[sp].[moe](G)p.[moe](T)p.[moe]([m5C])p.[moe](A)p.[moe]([m5C])p.d(A)[sp].d(T)[sp].d(T)[sp].d([m5C])[sp].d(A)[sp].d([m5C])[sp].d(T)[sp].d(A)[sp].d(A)[sp].d(T)[sp].[moe](A)p.[moe](T)[sp].[moe](T)}$$$$ (last 3' nucleoside missing) | 0
17 | RNA1{[moe](A)[sp].[moe](G)p.[moe]([m5C])p.[moe](A)p.[moe](T)p.[moe](T)p.d(T)[sp].d(G)[sp].d(T)[sp].d([m5C])[sp].d(T)[sp].d(T)[sp].d(T)[sp].d(A)[sp].d(T)[sp].d(T)[sp].[moe](T)p.[moe](T)[sp].[moe](T)}$$$$ (last 3' nucleoside missing) | 1
18 | RNA1{[moe]([m5C])[sp].[moe](A)p.[moe](A)p.[moe](G)p.[moe]([m5C])[sp].d(T)[sp].d([m5C])[sp].d(T)[sp].d(G)[sp].d([m5C])[sp].d([m5C])[sp].d(A)[sp].d(G)[sp].d(T)[sp].d(T)[sp].[moe](T)p.[moe](A)p.[moe](A)[sp].[moe](T)}$$$$ (last 3' nucleoside missing) | 5
19 | RNA1{[moe](T)[sp].[moe](G)p.[moe]([m5C])p.[moe]([m5C])p.[moe](A)[sp].d(T)[sp].d(T)[sp].d(T)[sp].d(A)[sp].d(T)[sp].d([m5C])[sp].d(T)[sp].d(G)[sp].[moe](T)p.[moe](G)p.[moe]([m5C])[sp].[moe](T)}$$$$ (last 3' nucleoside missing) | 3
20 | RNA1{[moe](T)[sp].[moe](G)p.[moe](T)p.[moe]([m5C])p.d(T)[sp].d(T)[sp].d(T)[sp].d(A)[sp].d(T)[sp].d(T)[sp].d(T)[sp].d(T)[sp].d(T)[sp].d([m5C])[sp].[moe]([m5C])p.[moe](T)p.[moe]([m5C])p.[moe](A)[sp].[moe](G)}$$$$ (last 3' nucleoside missing) | 2
21 | RNA1{[moe](G)[sp].[moe](T)p.[moe]([m5C])p.[moe](A)p.[moe](G)p.d([m5C])[sp].d([m5C])[sp].d(T)[sp].d(G)[sp].d(G)[sp].d(T)[sp].d(T)[sp].d(A)[sp].d(G)[sp].d([m5C])[sp].[moe]([m5C])p.[moe](T)p.[moe](T)[sp].[moe](T)}$$$$ (last 3' nucleoside missing) | 5
22 | RNA1{[moe](A)[sp].[moe](G)p.[moe](T)p.[moe](G)p.d(T)[sp].d(G)[sp].d(T)[sp].d(A)[sp].d(T)[sp].d(T)[sp].d(A)[sp].d(G)[sp].d(G)[sp].d(A)[sp].[moe](T)p.[moe]([m5C])p.[moe]([m5C])p.[moe]([m5C])[sp].[moe](A)}$$$$ (last 3' nucleoside missing) | 5
23 | RNA1{[moe](G)[sp].[moe](T)p.[moe](T)p.[moe](T)p.[moe]([m5C])[sp].d([m5C])[sp].d(T)[sp].d(T)[sp].d(T)[sp].d(T)[sp].d(A)[sp].d([m5C])[sp].d([m5C])[sp].d(A)[sp].d(A)[sp].[moe](G)p.[moe]([m5C])p.[moe](T)[sp].[moe](G)}$$$$ (last 3' nucleoside missing) | 4
24 | RNA1{[moe](A)[sp].[moe](G)p.[moe](T)p.[moe]([m5C])p.d(A)[sp].d(G)[sp].d([m5C])[sp].d([m5C])[sp].d(T)[sp].d(G)[sp].d(G)[sp].d(T)[sp].d(T)[sp].d(A)[sp].[moe](G)p.[moe]([m5C])p.[moe]([m5C])p.[moe](T)[sp].[moe](T)}$$$$ (last 3' nucleoside missing) | 3
25 | RNA1{[moe](G)[sp].[moe](T)p.[moe](G)p.[moe]([m5C])p.[moe]([m5C])[sp].d([m5C])[sp].d([m5C])[sp].d([m5C])[sp].d([m5C])[sp].d(G)[sp].d([m5C])[sp].d([m5C])[sp].d([m5C])[sp].d(T)[sp].d([m5C])[sp].[moe]([m5C])p.[moe](T)p.[moe]([m5C])[sp].[moe]([m5C])}$$$$ (last 3' nucleoside missing) | 2
26 | RNA1{[moe](G)[sp].[moe](G)p.[moe]([m5C])p.[moe](A)p.[moe](G)p.d(T)[sp].d(A)[sp].d(T)[sp].d(T)[sp].d(A)[sp].d([m5C])[sp].d([m5C])[sp].d(T)[sp].d([m5C])[sp].d(T)[sp].[moe](A)p.[moe]([m5C])p.[moe](T)[sp].[moe](A)}$$$$ (last 3' nucleoside missing) | 3
